Measured values from patent publication US10800789B2, “Antiviral compounds” (Gilead Pharmasset LLC, priority 2012, dated 2020).
Where two headings read alike, the source gives them in different places.

Experiments:
[1] = test system: stable HCV 1b RLuc replicon cells (dicistronic genotype 1b Con1 replicon); assay: Renilla luciferase HCV replicon reporter assay, genotype 1b; format: cell-based; details: stable 1b Con1 RLuc replicon cells, 72 hours, read-out: 1b
Summary of the method: (§1)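 First, 3-fold serial dilutions of compound went onto replicon cells, DMSO serving as no-inhibition control and ITMN-191 at >100×EC50 as positive control. Next came 72 h incubation, lysis and Renilla luciferase measurement. Finally, EC50 was calculated by non-linear regression; replicons covered genotypes 1a H77, 1b Con1, 2a JFH-1 (L31) and J6-NS5A chimera (M31).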

[2] = test system: stable HCV 1a RLuc replicon cells (dicistronic genotype 1a H77 replicon); assay: Renilla luciferase HCV replicon reporter assay, genotype 1a; format: cell-based; details: stable 1a H77 RLuc replicon cells
Summary of the method: as §1

[3] = test system: stable HCV 2a JFH-1 Rluc replicon cells (L31 present in NS5A); assay: Renilla luciferase HCV replicon reporter assay, genotype 2a JFH-1; format: cell-based
Summary of the method: as §1

[4] = test system: NS5A chimeric genotype 2a JFH-1 replicon with genotype 2a J6 strain NS5A gene (M31 present); assay: Replicon assay, genotype 2a J6 NS5A chimera; format: cell-based, HCV
Summary of the method: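 Antiviral EC50 was determined in HCV replicon cells (stable RLuc lines for 1a H77, 1b Con1, 2a JFH-1 with NS5A L31; J6 NS5A chimera with M31) treated 72 h with compound. Renilla luciferase was then quantified.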

[5] = test system: NS5A chimeric genotype 2a JFH-1 replicon with genotype 2b MD2b-1 strain NS5A gene (M31 present); assay: Replicon assay, genotype 2b NS5A chimera; format: cell-based, HCV
Summary of the method: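 EC50 was fitted by non-linear regression to Renilla luciferase signal after 72 h of exposure to 3-fold serially diluted compound (10 mM DMSO stocks). Controls were DMSO (none) and ITMN-191 above 100×EC50 (full). Chimeric 2a replicons were used either stable or transiently transfected into Huh-Lunet cells.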

[6] = test system: NS5A chimeric genotype 1b Con1 replicon with genotype 3a S52 strain NS5A gene; assay: Replicon assay, genotype 3a NS5A chimera; format: cell-based, HCV
[7] = test system: NS5A chimeric genotype 1b Con1 replicon with genotype 4a ED43 strain NS5A gene; assay: Replicon assay, genotype 4a NS5A chimera; format: cell-based, HCV
[8] = Hepatitis C virus, read-out: 2b (t) (nM), genotype 2b MD2b-1 NS5A chimeric replicon (M31), transiently transfected (t)
[9] = Hepatitis C virus, read-out: 2b (t), transiently transfected (t) into Huh-Lunet cells, activity range
[10] = Hepatitis C virus, 72 h, activity range
[11] = Hepatitis C virus, read-out: 2a JFH (nM), genotype 2a JFH-1 replicon (L31 in NS5A), stable cells
[12] = Hepatitis C virus, read-out: 2a JFH, stable 2a JFH-1 Rluc replicon cells, L31 in NS5A, activity range
[13] = Hepatitis C virus, read-out: 2a J6 (t) (nM), genotype 2a J6 NS5A chimeric replicon (M31), transiently transfected (t) into Huh-Lunet cells
[14] = Hepatitis C virus, read-out: 2a J6 (t), transiently transfected (t) into Huh-Lunet cells, activity range
[15] = Hepatitis C virus, 2BS, read-out: 2b (s), stably replicating replicon cells (s), activity range
[16] = Hepatitis C virus, read-out: 2b (s) (nM), genotype 2b MD2b-1 NS5A chimeric replicon (M31), stably replicating replicon cells (s)
[17] = Hepatitis C virus, read-out: 3a (s) (nM), genotype 3a NS5A chimeric replicon, stable replicon cells (s)
[18] = Hepatitis C virus, read-out: 3a (s), (s), activity range
[19] = Hepatitis C virus, read-out: 4a (s) (nM), genotype 4a NS5A chimeric replicon, stable replicon cells (s)
[20] = Hepatitis C virus, read-out: 4a (s), (s), activity range

Structure (SMILES)	EC50 ([1]; Hepatitis C virus, 72 h)	EC50 ([2]; Hepatitis C virus, 72 h)	EC50 [2, 10]	EC50 [3, 11]	EC50 [3, 12]	EC50 [4, 13]	EC50 [4, 14]	EC50 [5, 15]	EC50 [5, 16]	EC50 [6, 17]	EC50 [6, 18]	EC50 [7, 19]	EC50 [7, 20]	other results
COC[C@H]1C[C@@H](c2nc(C3CC3)c(-c3ccc4c(c3)COc3cc5c(ccc6nc([C@@H]7CC[C@H](C)N7C(=O)[C@@H](NC(=O)OC)C(C)C)[nH]c65)cc3-4)[nH]2)N(C(=O)[C@H](NC(=O)OC)c2ccccc2)C1 [FV, Methyl {(1R)-2-[(2S,4S)-2-(4-cyclopropyl-5-{2-[(2S,5S)-1-{(2S)-2-[(methoxycarbonyl)amino]-3-methylbutanoyl}-5-methylpyrrolidin-2-yl]-1,11-dihydroisochromeno[4′,3′:6,7]naphtho[1,2-d]imidazol-9-yl}-1H-imidazol-2-yl)-4-(methoxymethyl)pyrrolidin-1-yl]-2-oxo-1-phenylethyl}carbamate]	–	–	–	–	–	–	–	–	–	–	–	–	–	EC50 [1]: 0.036 nM; EC50 ([2]; 72 hours): 0.023 nM; EC50 ([2]; 72 hours, activity range): < 0.1 nM; EC50 ([3]; read-out: 2a JFH, genotype 2a JFH-1 replicon (L31 in NS5A), stable cells): 0.111 nM; EC50 ([3]; read-out: 2a JFH, stable 2a JFH-1 Rluc replicon cells, L31 in NS5A, activity range): 0.1 to 0.999 nM; EC50 ([4]; read-out: 2a J6 (t), genotype 2a J6 NS5A chimeric replicon (M31), transiently transfected (t) into Huh-Lunet cells): 3.78 nM; EC50 ([4]; read-out: 2a J6 (t), transiently transfected (t) into Huh-Lunet cells, activity range): 1 to 44 nM; EC50 [5, 8]: 0.772 nM; EC50 [5, 9]: 0.1 to 0.999 nM; EC50 ([5]; read-out: 2b (s), genotype 2b MD2b-1 NS5A chimeric replicon (M31), stably replicating replicon cells (s)): 2.55 nM; EC50 ([5]; read-out: 2b (s), stably replicating replicon cells (s), activity range): 1 to 44 nM; EC50 ([6]; read-out: 3a (s), (s), activity range): 1 to 44 nM; EC50 ([6]; read-out: 3a (s), genotype 3a NS5A chimeric replicon, stable replicon cells (s)): 5.25 nM; EC50 ([7]; read-out: 4a (s), (s), activity range): < 0.1 nM; EC50 ([7]; read-out: 4a (s), genotype 4a NS5A chimeric replicon, stable replicon cells (s)): 0.029 nM
CC[C@H](C)[C@H](NC(=O)OC)C(=O)N1[C@@H](C)CC[C@H]1c1ncc(-c2ccc3c(c2)COc2cc4c(ccc5nc([C@@H]6CC[C@H](C)N6C(=O)[C@@H](NC(=O)OC)C(C)C)[nH]c54)cc2-3)[nH]1 [GL]	0.021 nM	0.015 nM	< 0.1 nM	0.024 nM	< 0.1 nM	0.364 nM	0.1 to 0.999 nM	0.1 to 0.999 nM	0.577 nM	0.054 nM	< 0.1 nM	0.022 nM	< 0.1 nM	–
COC(=O)N[C@H](C(=O)N1C(c2ncc(-c3ccc4c(c3)COc3cc5c(ccc6nc(C7C[C@H](C)CN7C(=O)[C@@H](NC(=O)OC)C(C)(C)C)[nH]c65)cc3-4)[nH]2)CC[C@@H]1C)C(C)C (stereo partly shown) [HN]	0.012 nM	0.01 nM	< 0.1 nM	0.018 nM	< 0.1 nM	1.1 nM	1 to 44 nM	1 to 44 nM	2.86 nM	0.282 nM	0.1 to 0.999 nM	0.018 nM	< 0.1 nM	–
CC[C@H]1CC[C@@H](c2nc3ccc4cc5c(cc4c3[nH]2)OCc2cc(-c3cnc([C@@H]4CC[C@H](C)N4C(=O)[C@@H](NC(=O)OC)C(C)C)[nH]3)ccc2-5)N1C(=O)[C@H](NC(=O)OC)c1ccccc1 [IH]	0.021 nM	0.02 nM	< 0.1 nM	0.024 nM	< 0.1 nM	0.514 nM	0.1 to 0.999 nM	0.1 to 0.999 nM	0.194 nM	0.052 nM	< 0.1 nM	0.016 nM	< 0.1 nM	–
CC[C@H]1CC[C@@H](c2ncc(-c3ccc4c(c3)COc3cc5c(ccc6nc([C@@H]7C[C@@H]8CCC[C@@H]8N7C(=O)[C@@H](NC(=O)OC)C7CCOCC7)[nH]c65)cc3-4)[nH]2)N1C(=O)[C@@H](NC(=O)OC)C(C)C [IQ]	0.019 nM	0.018 nM	< 0.1 nM	0.023 nM	< 0.1 nM	0.046 nM	< 0.1 nM	< 0.1 nM	0.069 nM	0.045 nM	< 0.1 nM	0.021 nM	< 0.1 nM	–
COC(=O)N[C@H](C(=O)N1[C@@H](C)CC[C@H]1c1nc2ccc3cc4c(cc3c2[nH]1)OCc1cc(-c2cnc([C@@H]3C[C@H](F)CN3C(=O)[C@@H](NC(=O)OC)[C@@H](C)OC)[nH]2)ccc1-4)C(C)C [HU]	0.055 nM	0.016 nM	< 0.1 nM	0.026 nM	< 0.1 nM	3.17 nM	1 to 44 nM	1 to 44 nM	3.56 nM	0.083 nM	< 0.1 nM	0.012 nM	< 0.1 nM	–
CC[C@H]1C[C@@H](c2ncc(-c3ccc4c(c3)COc3cc5c(ccc6nc([C@@H]7CC[C@H](C)N7C(=O)[C@@H](NC(=O)OC)C(C)C)[nH]c65)cc3-4)[nH]2)N(C(=O)[C@@H](NC(=O)OC)[C@@H](C)OC)C1 [GX]	0.016 nM	0.016 nM	< 0.1 nM	0.013 nM	< 0.1 nM	0.135 nM	0.1 to 0.999 nM	1 to 44 nM	1.18 nM	0.106 nM	0.1 to 0.999 nM	0.01 nM	< 0.1 nM	–
COC(=O)N[C@H](C(=O)N1[C@@H](C)CC[C@H]1c1nc2ccc3cc4c(cc3c2[nH]1)OCc1cc(-c2cnc([C@@H]3C[C@@H]5CCC[C@@H]5N3C(=O)[C@@H](NC(=O)OC)C3CCOCC3)[nH]2)ccc1-4)C(C)C [IB]	0.032 nM	0.021 nM	< 0.1 nM	0.027 nM	< 0.1 nM	0.05 nM	< 0.1 nM	0.1 to 0.999 nM	0.129 nM	0.077 nM	< 0.1 nM	0.026 nM	< 0.1 nM	–
CC[C@H]1CC[C@@H](c2ncc(-c3ccc4c(c3)COc3cc5c(ccc6nc([C@@H]7C[C@H](C)CN7C(=O)[C@@H](NC(=O)OC)C(C)C)[nH]c65)cc3-4)[nH]2)N1C(=O)[C@@H](NC(=O)OC)C1CCOCC1 [IC]	0.027 nM	0.024 nM	< 0.1 nM	0.02 nM	< 0.1 nM	0.052 nM	< 0.1 nM	0.1 to 0.999 nM	0.122 nM	0.116 nM	0.1 to 0.999 nM	0.012 nM	< 0.1 nM	–
CC[C@H]1CC[C@@H](c2ncc(-c3ccc4c(c3)COc3cc5c(ccc6nc([C@@H]7C[C@H](C)CN7C(=O)[C@@H](NC(=O)OC)C7CCOCC7)[nH]c65)cc3-4)[nH]2)N1C(=O)[C@@H](NC(=O)OC)C(C)C [HZ]	0.025 nM	0.012 nM	< 0.1 nM	0.014 nM	< 0.1 nM	0.023 nM	< 0.1 nM	< 0.1 nM	0.073 nM	0.14 nM	0.1 to 0.999 nM	0.012 nM	< 0.1 nM	–
COC(=O)N[C@H](C(=O)N1C[C@@H](C)C[C@H]1c1ncc(-c2ccc3c(c2)COc2cc4c(ccc5nc([C@@H]6CC[C@H](C)N6C(=O)[C@@H](NC(=O)OC)[C@@H](C)OC)[nH]c54)cc2-3)[nH]1)[C@@H](C)OC [DZ, Methyl [(2S,3R)-3-methoxy-1-{(2S,5S)-2-[9-(2-{(2S,5S)-1-[N-(methoxycarbonyl)-O-methyl-L-threonyl]-4-methylpyrrolidin-2-yl}-1H-imidazol-5-yl)-1,11-dihydroisochromeno[4′,3′:6,7]naphtho[1,2-d]imidazol-2-yl]-5-methylpyrrolidin-1-yl}-1-oxobutan-2-yl]carbamate]	0.035 nM	0.021 nM	< 0.1 nM	0.016 nM	< 0.1 nM	0.054 nM	< 0.1 nM	0.1 to 0.999 nM	0.173 nM	0.089 nM	< 0.1 nM	0.02 nM	< 0.1 nM	EC50 [5, 8]: 0.072 nM; EC50 [5, 9]: < 0.1 nM
COC(=O)N[C@H](C(=O)N1[C@@H](C)CC[C@H]1c1ncc(-c2ccc3c(c2)COc2cc4c(ccc5nc([C@@H]6CC[C@H](C)N6C(=O)[C@@H](NC(=O)OC(C)(C)C)C(C)(C)O)[nH]c54)cc2-3)[nH]1)C(C)C [HV]	0.091 nM	3.65 nM	1 to 44 nM	1.87 nM	1 to 44 nM	≥ 44.4 nM	> 44 nM	> 44 nM	≥ 44.4 nM	12.6 nM	1 to 44 nM	1.27 nM	1 to 44 nM	–
